Experiments:
[1] = molecular target: Recombinant human CD33 protein (Homo sapiens (Human), UniProt P20138); assay: CD33 competitive binding assay for HTS drug screen (fluorescent multivalent sialic acid probe)
How it was run: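 Inhibition was read as reduced retention of a fluorescent multivalent sialic acid complex (final 5 μM neutravidin, 15 μM A-375, 5 μM biotin-4-FITC) on plate-immobilized human CD33. Compound was added first, the probe followed for 30 min at room temperature in PBS with 0.2% Tween-20 and 0.5% BSA, and FITC was measured after a wash.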

[2] = molecular target: Recombinant Human Siglec-3/CD33 protein (His-CD33) (Homo sapiens (Human), UniProt P20138); assay: Differential scanning fluorimetry (DSF) thermal shift assay; type: binding
Recombinant Human Siglec-3/CD33 protein (His-CD33), sequence (P20138 18-259): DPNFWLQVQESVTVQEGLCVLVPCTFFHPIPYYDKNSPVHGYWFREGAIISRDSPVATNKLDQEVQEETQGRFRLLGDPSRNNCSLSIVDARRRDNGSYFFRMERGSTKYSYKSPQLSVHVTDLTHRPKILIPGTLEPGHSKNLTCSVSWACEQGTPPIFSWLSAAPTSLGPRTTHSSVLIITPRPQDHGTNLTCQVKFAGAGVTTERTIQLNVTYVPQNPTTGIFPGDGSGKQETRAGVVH

[3] = thermal melt shift of 0.5 μM CD33 protein with 50 μM compound
[4] = difference in thermal melt of CD33 protein (0.5 μM) with 50 μM compound

Recombinant human CD33 protein, sequence (P20138 18-259): as above

Structure (SMILES): CC(=O)N[C@H]1[C@H]([C@H](O)[C@H](O)CNC(=O)c2nc(C)oc2C)O[C@@](CCN2CCOC[C@@]23CCN(C(=O)OC(C)(C)C)C3)(C(=O)O)C[C@@H]1O [A-140]
- EC50 [1]: 350 nM
- DSF (dTmD) [2, 3]: 7.5

Structure (SMILES): CC(=O)N[C@H]1[C@H]([C@H](O)[C@H](O)CNC(=O)c2cc(C)c(O)c(C)c2)O[C@@](CCN2CCOC[C@@]23CCN(C(=O)OC(C)(C)C)C3)(C(=O)O)C[C@]1(C)O [A-200]
- EC50 [1]: 131 nM
- DSF (dTmD) [2, 4]: 8.7 °C

Structure (SMILES): CC(=O)N[C@H]1[C@H]([C@H](O)[C@H](O)CNC(=O)c2cc(C)c(O)c(C)c2)O[C@@](C/C=C/c2cccc(CNC(=O)c3ccc(NS(C)(=O)=O)cc3)c2)(C(=O)O)C[C@@H]1O [A-239]
- EC50 [1]: 1120 nM
- DSF (dTmD) [2, 4]: 2.2 °C

Structure (SMILES): Cc1cc(C(=O)NC[C@@H](O)[C@@H](O)[C@@H]2O[C@@](C/C=C/c3cccc(CNC(=O)C4CCOCC4)c3)(C(=O)O)C[C@H](O)[C@H]2NC(=O)Cn2cc(C3CCCCC3)nn2)cc(C)c1O [A-261]
- EC50 [1]: 1440 nM
- DSF (dTmD) [2, 4]: 4.4 °C

Structure (SMILES): CC(=O)N[C@H]1[C@H]([C@H](O)[C@H](O)CNC(=O)c2ccc3[nH]ccc3c2)O[C@@](CCN2CCOC[C@@]23CCN(C(=O)OC(C)(C)C)C3)(C(=O)O)C[C@@H]1O [A-129]
- EC50 [1]: 10 nM
- DSF (dTmD) [2, 3]: 15.0

Structure (SMILES): CC(=O)N[C@H]1[C@H]([C@H](O)[C@H](O)CNC(=O)c2ccc(F)c(Br)c2)O[C@@](CCN2CCOC[C@@]23CCN(C(=O)OC(C)(C)C)C3)(C(=O)O)C[C@@H]1O [A-132]
- EC50 [1]: 51 nM
- DSF (dTmD) [2, 3]: 12.4

Structure (SMILES): CC(=O)N[C@H]1[C@H]([C@H](O)[C@H](O)CNC(=O)c2cc(C)c(O)c(C)c2)O[C@@](CCN2CCOC[C@@]23CCN(C(=O)C2(C)CCC2)C3)(C(=O)O)C[C@@H]1O [A-103]
- EC50 [1]: 1020 nM
- DSF (dTmD) [2, 3]: 6.6

Structure (SMILES): CC(=O)N[C@H]1[C@H]([C@H](O)[C@H](O)CNC(=O)c2cc(Cl)c(F)c(Cl)c2)O[C@@](CCN2CCOC[C@@]23CCN(C(=O)OC(C)(C)C)C3)(C(=O)O)C[C@@H]1O [A-159]
- EC50 [1]: 238 nM
- DSF (dTmD) [2, 3]: 11.4

Structure (SMILES): CC(=O)N[C@H]1[C@H]([C@H](O)[C@H](O)CNC(=O)c2cc(C)c(O)c(C)c2)O[C@@](C/C=C/c2cccc(CNC(=O)c3cccc(NCc4nc(C)cs4)c3)c2)(C(=O)O)C[C@@H]1O [A-245]
- EC50 [1]: 9460 nM
- DSF (dTmD) [2, 4]: 1.2 °C

Structure (SMILES): CC(=O)N[C@H]1[C@H]([C@H](O)[C@H](O)CNC(=O)c2cc(-c3csc(C)n3)on2)O[C@@](CCN2CCOC[C@@]23CCN(C(=O)OC(C)(C)C)C3)(C(=O)O)C[C@@H]1O [A-179]
- EC50 [1]: 217 nM
- DSF (dTmD) [2, 3]: 7.7

Structure (SMILES): CC(=O)N[C@H]1[C@H]([C@H](O)[C@H](O)CNC(=O)c2cc(C)c(O)c(C)c2)O[C@@](CCN2CCOC[C@@]23CCN(C(=O)NC2CCCCC2)C3)(C(=O)O)C[C@@H]1O [A-045]
- EC50 [1]: 19 nM
- DSF (dTmD) [2, 3]: 12.6

Structure (SMILES): CC(=O)NC1[C@H]([C@H](O)[C@H](O)CNC(=O)c2cc(C)c(O)c(C)c2)O[C@@](CC(=O)N2CCOC[C@@]23CCN(C(=O)NC(C)(C)C)C3)(C(=O)O)C[C@@H]1O (some centres unmarked) [A-223]
- EC50 [1]: 123 nM
- DSF (dTmD) [2, 4]: 8.9 °C

Structure (SMILES): Cc1cc(C(=O)NC[C@@H](O)[C@@H](O)[C@@H]2O[C@@](C/C=C/c3ccccc3)(C(=O)O)C[C@H](O)[C@H]2NC(=O)Cn2cc(C3CCCCC3)nn2)cc(C)c1O [A-283]
- EC50 [1]: 102000 nM
- DSF (dTmD) [2, 4]: 2.1 °C

Structure (SMILES): CC(=O)N[C@H]1[C@H]([C@H](O)[C@H](O)CNC(=O)c2cc(C)c(O)c(C)c2)O[C@](CO)(CCN2CCOC[C@@]23CCN(C(=O)OC(C)(C)C)C3)C[C@@H]1O [A-360]
- EC50 [1]: > 100000 nM
- DSF (dTmD) [2, 4]: −0.3 °C

Structure (SMILES): CC(=O)N[C@H]1[C@H]2O[C@](C(=O)O)(CCCCOC[C@@H](NC(=O)C3CCCOC3)COCCOc3c(C)cc(cc3C)C(=O)NC[C@@H](O)[C@H]2O)C[C@@H]1O (some centres unmarked) [A-342]
- EC50 [1]: 45400 nM
- DSF (dTmD) [2, 4]: 1.5 °C

Structure (SMILES): COCCC(=O)NCc1cccc(/C=C/C[C@]2(C(=O)O)C[C@H](O)[C@@H](NC(=O)Cn3cc(C4CCCCC4)nn3)[C@H]([C@H](O)[C@H](O)CNC(=O)c3cc(C)c(O)c(C)c3)O2)c1 [A-265]
- EC50 [1]: 1370 nM
- DSF (dTmD) [2, 4]: 4.1 °C

Structure (SMILES): CC(=O)N[C@H]1[C@H]([C@H](O)[C@H](O)CNC(=O)c2cc(C)c(O)c(C)c2)O[C@@](C/C=C/c2cccc(CNC(=O)c3ccc4[nH]c(CCO)cc4c3)c2)(C(=O)O)C[C@@H]1O [A-248]
- EC50 [1]: 682 nM
- DSF (dTmD) [2, 4]: 6.0 °C

Structure (SMILES): CC(=O)N[C@H]1[C@H]([C@H](O)[C@H](O)CNC(=O)c2ccc(C(F)(F)F)c(C)c2)O[C@@](CCN2CCOC[C@@]23CCN(C(=O)OC(C)(C)C)C3)(C(=O)O)C[C@@H]1O [A-144]
- EC50 [1]: 230 nM
- DSF (dTmD) [2, 3]: 11.0

Structure (SMILES): Cc1cc(C(=O)NC[C@@H](O)[C@@H](O)[C@@H]2O[C@@](C/C=C/c3cccc(CNC(=O)c4ccn(C)c(=O)c4)c3)(C(=O)O)C[C@H](O)[C@H]2NC(=O)Cn2cc(C3CCCCC3)nn2)cc(C)c1O [A-273]
- EC50 [1]: 9940 nM
- DSF (dTmD) [2, 4]: 5.4 °C

Structure (SMILES): CC(=O)N[C@H]1[C@H]([C@H](O)[C@H](O)CNC(=O)c2cc(C)c(O)c(C)c2)O[C@@](CCN2CCOC[C@@]23CCN(C(=O)N2CCC(F)(F)CC2)C3)(C(=O)O)C[C@@H]1O [A-065]
- EC50 [1]: 739 nM
- DSF (dTmD) [2, 3]: 6.1

Structure (SMILES): Cc1cc(C(=O)NC[C@@H](O)[C@@H](O)[C@@H]2O[C@@](CC(O)[C@@H](O)c3cccc(NC(=O)OC(C)(C)C)c3)(C(=O)O)C[C@H](O)[C@H]2NC(=O)Cn2cc(C3CCCCC3)nn2)cc(C)c1O (some centres unmarked) [A-300]
- EC50 [1]: 44600 nM
- DSF (dTmD) [2, 4]: 1.6 °C

Structure (SMILES): CC(=O)N[C@H]1[C@H]([C@H](O)[C@H](O)CNC(=O)c2cc(C)c(OCCN)c(C)c2)O[C@@](CCN2CCCC[C@@]23CCN(C(=O)OC(C)(C)C)C3)(C(=O)O)C[C@@H]1O [A-027]
- EC50 [1]: 64 nM
- DSF (dTmD) [2, 3]: 10.4

Structure (SMILES): CC(=O)N[C@H]1[C@H]([C@H](O)[C@H](O)CNC(=O)c2c[nH]nc2C(F)(F)F)O[C@@](CCN2CCOC[C@@]23CCN(C(=O)OC(C)(C)C)C3)(C(=O)O)C[C@@H]1O [A-175]
- EC50 [1]: 4110 nM
- DSF (dTmD) [2, 3]: 4.6

Structure (SMILES): CC(=O)N[C@H]1[C@H]([C@H](O)[C@@](C)(O)CNC(=O)c2cc(C)c(O)c(C)c2)O[C@@](CCN2CCOC[C@@]23CCN(C(=O)OC(C)(C)C)C3)(C(=O)O)C[C@@H]1O [A-205]
- EC50 [1]: 1820 nM
- DSF (dTmD) [2, 4]: 3.5 °C

Structure (SMILES): CC(=O)N[C@H]1[C@H]([C@H](O)[C@H](O)CNC(=O)c2cc(C)c(O)c(C)c2)O[C@@](CCN2CCOC[C@@]23CCN(C(=O)NC2CCC(F)(F)CC2)C3)(C(=O)O)C[C@@H]1O [A-051]
- EC50 [1]: 64 nM
- DSF (dTmD) [2, 3]: 10.8

Structure (SMILES): CC(=O)N[C@H]1[C@H]([C@H](O)[C@H](O)CNC(=O)c2cc(C)c(O)c(C)c2)O[C@@](C/C=C/c2cccc(CNC(=O)c3ccc(NC(C)(C)C)cc3)c2)(C(=O)O)C[C@@H]1O [A-257]
- EC50 [1]: 1600 nM
- DSF (dTmD) [2, 4]: 5.9 °C

Structure (SMILES): Cc1cc2cc(C)c1OCCOC[C@@H](NC(=O)C1CCCOC1)COCCCC[C@]1(C(=O)O)C[C@H](O)[C@@H](NC(=O)Cn3cc(C4CCCCC4)nn3)[C@@H](O1)[C@H](O)[C@H](O)CNC2=O (some centres unmarked) [A-340]
- EC50 [1]: 3500 nM
- DSF (dTmD) [2, 4]: 4.22 °C

Structure (SMILES): Cc1cc(C(=O)NC[C@@H](O)[C@@H](O)[C@@H]2O[C@@](OC3CCCCC3NC(=O)CNC(=O)COC3CCCC3)(C(=O)O)C[C@H](O)[C@H]2NC(=O)Cn2cc(C3CCCCC3)nn2)cc(C)c1O (some centres unmarked) [A-329]
- EC50 [1]: 15200 nM
- DSF (dTmD) [2, 4]: 1.4 °C

Structure (SMILES): CC(=O)N[C@H]1[C@H]([C@H](O)[C@H](O)CNC(=O)c2cc(C)c(O)c(C)c2)O[C@@](CCN2CCOC[C@@]23CCN(C(=O)C2(C(F)(F)F)CCCCC2)C3)(C(=O)O)C[C@@H]1O [A-102]
- EC50 [1]: 397 nM
- DSF (dTmD) [2, 3]: 7.5

Structure (SMILES): CC(=O)N[C@H]1[C@H]([C@H](O)[C@H](O)CNC(=O)c2cc(C)c(O)c(C)c2)O[C@@](CC2OC(C)(C)O[C@H]2c2cccc(NC(=O)c3ccc4cc[nH]c4c3)c2)(C(=O)O)C[C@@H]1O (some centres unmarked) [A-302]
- EC50 [1]: 1500 nM
- DSF (dTmD) [2, 4]: 4.9 °C

Structure (SMILES): CC(=O)N[C@H]1[C@H]([C@H](O)[C@H](O)CNC(=O)c2ccc3cn[nH]c3c2)O[C@@](CCN2CCOC[C@@]23CCN(C(=O)OC(C)(C)C)C3)(C(=O)O)C[C@@H]1O [A-151]
- EC50 [1]: 206 nM
- DSF (dTmD) [2, 3]: 8.9

Structure (SMILES): Cc1cc(C(=O)NC[C@@H](O)[C@@H](O)[C@H]2C[C@@H](O)C[C@](CCN3CCOC[C@@]34CCN(C(=O)OC(C)(C)C)C4)(C(=O)O)O2)cc(C)c1O [A-202]
- EC50 [1]: 311 nM
- DSF (dTmD) [2, 4]: 5.46 °C

Structure (SMILES): CC(=O)N[C@H]1[C@H]([C@H](O)[C@H](O)CNC(=O)c2cc(C)c(O)c(C)c2)O[C@@](C[C@H]2COC[C@@]3(CCN(C(=O)NC(C)(C)C)C3)N2)(C(=O)O)C[C@@H]1O [A-228]
- EC50 [1]: 14 nM
- DSF (dTmD) [2, 4]: 13.4 °C

Structure (SMILES): CC(=O)N[C@H]1[C@H]([C@H](O)[C@H](O)CNC(=O)c2cn(C)nc2C(F)(F)F)O[C@@](CCN2CCOC[C@@]23CCN(C(=O)OC(C)(C)C)C3)(C(=O)O)C[C@@H]1O [A-174]
- EC50 [1]: 1170 nM
- DSF (dTmD) [2, 3]: 6.6

Reference: US20250313574A1, “SIALIC ACID DERIVATIVES AND METHODS OF USING SAME” (EISAI R&D MANAGEMENT CO., LTD., priority 2022, published 2025)
